Reference: the NIST ThermoML archive (doi:10.1021/je1012857)
Numbers after ± are expanded uncertainties.

Conditions: 298.15 K, 101.33 kPa, Liquid; for viscosity: Capillary tube (Ostwald / Ubbelohde) method; for speed of sound: Sing-around technique in a fixed-path interferometer

## CC(C)CO [2-methyl-1-propanol]
  mass density: 798.104 ± 1 kg/m3
  viscosity: 3.307 ± 0.025 mPa·s
  speed of sound: 1188.8 ± 1.3 m/s

## CCCCO [butan-1-ol]
  mass density: 805.953 ± 0.47 kg/m3
  viscosity: 2.565 ± 0.016 mPa·s
  speed of sound: 1241.1 ± 1 m/s

## NCCN [ethane-1,2-diamine]
  mass density: 892.389 ± 0.75 kg/m3
  viscosity: 1.405 ± 0.012 mPa·s
  speed of sound: 1671.6 ± 1.4 m/s

## CC(C)O [propan-2-ol]
  mass density: 781.051 ± 0.51 kg/m3
  viscosity: 2.063 ± 0.013 mPa·s
  speed of sound: 1140.4 ± 0.9 m/s
